This passage reports TGI and GI50 results from PubChem BioAssay (NCI).

Test systems include DMS 114 small cell lung; DMS 273 small cell lung; HOP-18 NSCLC; KM20L2 colon; XF 498 CNS; RXF-631 renal; HS 578T breast; MDA-N; SN12K1 renal; T-47D breast.
Holding throughout (assay): DTP human tumour cell line panel, 48 h

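Five compound concentrations were applied to cells in 96-well plates for 48 hours; endpoints were derived by simple linear interpolation of the resulting dose-response curve. GI50: concentration for 50% inhibition of growth. The concentration for full growth arrest is given as TGI.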

The TGI is the concentration giving total growth inhibition. As usually defined, the GI50 is the concentration that inhibits growth by half.

As for `COC1=CC(=O)c2c(cc3c(c2O)-c2c(OC)cc4cc5c(c(O)c4c2OC(=O)CC(C)(O)C3)C(=O)CC(C)(O)C5)C1=O` (stereo not given), the TGI with DMS 114 small cell lung amounted to 3.58 µM; with DMS 273 small cell lung, 5.31 µM; in the test with HOP-18 NSCLC it was 5.39 µM; with KM20L2 colon, 5.29 µM; with XF 498 CNS, 3.23 µM.
Turning to `OCCCc1cnco1`, the TGI with DMS 273 small cell lung, in the test with HOP-18 NSCLC, in the test with KM20L2 colon and in the test on XF 498 CNS was above 100 µM each time.
Take `O=C(N/C=C/C=C/Sc1ccccc1)OCc1ccccc1`: the TGI with DMS 114 small cell lung stood at 32.3 µM; in the test with DMS 273 small cell lung it was 31.4 µM; in the test with HOP-18 NSCLC, 65 µM; with KM20L2 colon it was 31 µM; in the test on RXF-631 renal it was 39.3 µM; in the test with XF 498 CNS it was 43.9 µM.
Regarding `Cc1cc2c(cc1C)[n+](=O)c(C(=O)CC(=O)C(=O)Nc1ccccc1C(C)C)c(C)n2[O-]`, the TGI in the test on DMS 114 small cell lung, in the test on DMS 273 small cell lung, with KM20L2 colon, in the test with RXF-631 renal and in the test with XF 498 CNS was above 100 µM in each case.
For the compound `CC(C)(CN1CCCCC1)C(=O)CC(SCCN)c1ccc(Cl)cc1` (stereo not given), the TGI with DMS 114 small cell lung amounted to 3.43 µM; in the test on DMS 273 small cell lung, 4.96 µM; in the test on KM20L2 colon it was 5.43 µM; in the test with RXF-631 renal it was 14.3 µM; with XF 498 CNS, 4.1 µM.
Consider `N#Cc1c(-c2ccccc2)cc(-c2cccs2)c(C#N)c1N`, for which the TGI was above 100 µM with DMS 273 small cell lung, 0.0879 µM in the test on HOP-18 NSCLC, above 100 µM in the test on KM20L2 colon and above 100 µM in the test with XF 498 CNS.
Regarding `Fc1ccc(C2SCc3nc4ccccc4n32)cc1F` (stereo not given), the TGI with DMS 114 small cell lung is 77.8 µM; in the test on DMS 273 small cell lung, 97.9 µM; in the test on HOP-18 NSCLC it was above 100 µM; in the test on KM20L2 colon, above 100 µM; in the test with RXF-631 renal it was above 100 µM; in the test with XF 498 CNS, above 100 µM.
Turning to `C#CCn1c(=O)c2cccnc2n(CC#C)c1=O`, the TGI with DMS 273 small cell lung, in the test on HOP-18 NSCLC and in the test with XF 498 CNS was above 100 µM throughout.
With `COC(=O)c1nc(C(=O)OC)c2c([nH]c3ccccc32)c1C(=O)OC`, the TGI with DMS 114 small cell lung, in the test with DMS 273 small cell lung and in the test on XF 498 CNS was above 100 µM throughout.
Regarding `NC(=S)N/N=C(\CCC(=O)Nc1ccccc1[N+](=O)[O-])CC(=O)c1ccco1`, the total growth inhibition concentration (TGI) in the test on DMS 114 small cell lung, in the test with DMS 273 small cell lung, in the test on HOP-18 NSCLC, with KM20L2 colon, in the test on RXF-631 renal and in the test with XF 498 CNS was above 100 µM in each case.
For `CC(=O)SC(SC(C)=O)SC(C)=O`, the concentration for total growth inhibition (TGI) in the test with DMS 114 small cell lung, in the test with DMS 273 small cell lung, in the test with HOP-18 NSCLC, in the test with KM20L2 colon and in the test on RXF-631 renal was above 100 µM each time.
On to `N#CC(/C(=N/NC(N)=S)C(=O)Nc1cccc(Cl)c1)c1ccccc1` (stereo not given), for which the TGI with DMS 114 small cell lung, in the test with DMS 273 small cell lung, in the test with HOP-18 NSCLC, with KM20L2 colon, in the test with RXF-631 renal and in the test with XF 498 CNS was above 100 µM each time.
For the compound `O=C(O)c1ccc(C(=O)O)c(C(=O)O)c1.[NH-]C1CCCCC1[NH-].[Pt+2]`, the GI50 in the test with DMS 273 small cell lung is 0.417 µM; in the test with HOP-18 NSCLC, 11.8 µM; in the test with HS 578T breast, 13.5 µM; with KM20L2 colon, 0.768 µM; with MDA-N it was 1.15 µM; in the test with SN12K1 renal, 2.71 µM. Further, the GI50 is 6.58 µM with T-47D breast and 1.8 µM in the test on XF 498 CNS. Also, the TGI in the test with DMS 273 small cell lung came to 9.31 µM; in the test on HOP-18 NSCLC, 84.6 µM; with HS 578T breast, 84.5 µM; with KM20L2 colon, 27.7 µM; in the test with MDA-N, 24.7 µM; in the test on SN12K1 renal, 19 µM. The TGI in the test with T-47D breast amounted to 67.2 µM; in the test on XF 498 CNS, 16.5 µM.
On to `NC1=NC2=C(CCCC2)C(c2cccs2)S1` (stereo not given), for which the TGI in the test with DMS 114 small cell lung, in the test with DMS 273 small cell lung, with HOP-18 NSCLC, in the test with KM20L2 colon and in the test with XF 498 CNS was above 100 µM each time.
On to `Cc1ccc(NC(=O)/C(=N\NC(N)=S)C(C#N)c2ccccc2C)cc1C` (stereo not given), for which the TGI in the test with DMS 114 small cell lung, in the test on DMS 273 small cell lung, in the test with HOP-18 NSCLC, in the test on KM20L2 colon, in the test on RXF-631 renal and in the test with XF 498 CNS was above 100 µM each time.
On to `C=C(COC(C)=O)CC(/C=C(\C)CC/C=C(\C)CO)OC(C)=O` (stereo not given), for which the TGI in the test with DMS 273 small cell lung, with KM20L2 colon, with RXF-631 renal and with XF 498 CNS was above 100 µM throughout.
For `CCCCN(CCCC)CC(C(=O)Nc1ccc([N+](=O)[O-])cc1[N+](=O)[O-])/C(C)=N\NC(=O)C[N+](C)(C)C` (stereo not given), the TGI with DMS 114 small cell lung was above 100 µM; with DMS 273 small cell lung it was 31.2 µM; with HOP-18 NSCLC, above 100 µM; in the test on KM20L2 colon it was above 100 µM; with RXF-631 renal, above 100 µM; with XF 498 CNS, above 100 µM.
As to `CCc1cccc(CC)c1NC(=O)CC1SC(N)=NC1=O` (stereo not given), the TGI in the test with DMS 114 small cell lung, with DMS 273 small cell lung, in the test on HOP-18 NSCLC, in the test on RXF-631 renal and with XF 498 CNS was above 100 µM in each case.
`COc1cc(C2C(C(=O)O)=C(COC(C)=O)Oc3cc4c(cc32)OCO4)cc(OC)c1OC(C)=O` (stereo not given): the TGI in the test on DMS 114 small cell lung, with DMS 273 small cell lung, with HOP-18 NSCLC, in the test on KM20L2 colon, with RXF-631 renal and in the test on XF 498 CNS was above 100 µM throughout.
As to `CC(=O)OCC1OC([Se-])C(OC(C)=O)C(OC(C)=O)C1OC(C)=O.N#CCC[PH+](CCC#N)CCC#N.[Au+]` (stereo not given), the GI50 with DMS 273 small cell lung is 4.09 µM; with HOP-18 NSCLC, 12.6 µM; with KM20L2 colon, 7 µM; in the test with RXF-631 renal it was 16 µM; in the test on XF 498 CNS, 8.09 µM. Further, the TGI in the test with DMS 273 small cell lung was 49.7 µM; in the test with HOP-18 NSCLC, 46.9 µM; in the test with KM20L2 colon, 41.1 µM; in the test on RXF-631 renal, above 100 µM; in the test with XF 498 CNS it was 34.6 µM.
Regarding `O=c1nc(N2CCCC2)nc(N2CCCC2)s1`, the TGI in the test with DMS 114 small cell lung, in the test with DMS 273 small cell lung, in the test with HOP-18 NSCLC, in the test with KM20L2 colon, in the test with RXF-631 renal and in the test on XF 498 CNS was above 100 µM each time.
As to `CC(=O)Oc1ccc(Nn2c3ccccc3c3ccccc32)c(C)c1`, the total growth inhibition concentration (TGI) in the test with DMS 114 small cell lung came to 79.8 µM; in the test on DMS 273 small cell lung, 51.9 µM; in the test with HOP-18 NSCLC, 75.8 µM; in the test on KM20L2 colon, 78.9 µM; with XF 498 CNS, 77.3 µM.
For `Cn1c2cc([N+](=O)[O-])ccc2c(=O)c2c(O)cc3c(c21)C=CC(C)(C)O3`, the TGI in the test with DMS 273 small cell lung was above 100 µM; in the test on KM20L2 colon, above 100 µM; with XF 498 CNS, 47.7 µM.
Consider `NC(CO)c1ccc(OCc2ccccc2)cc1` (stereo not given), for which the TGI in the test on DMS 114 small cell lung, with DMS 273 small cell lung, with HOP-18 NSCLC, in the test on KM20L2 colon and in the test on XF 498 CNS was above 100 µM each time.
`CN(C)c1ccc(/C=c2\sc3nnc(-c4cccnc4)n3c2=O)cc1`: the concentration for total growth inhibition (TGI) with DMS 114 small cell lung, with DMS 273 small cell lung, in the test with HOP-18 NSCLC, in the test with KM20L2 colon and in the test with XF 498 CNS was above 100 µM each time.
